Here are results for four compounds from article PMC11284788, “NN1213 – A Potent, Long-Acting, and Selective Analog of Human Amylin” (Journal of Medicinal Chemistry, 2024).

Numbered stars: 1 amine (or outer) side, 2 acyl side, 3 side chain; on linkers, the order of the positions; unused ones are H or OH. Bridge positions count the residues as written; N and C are the ends. Side chains are listed from the residue outwards. Peptide text beside a SMILES is read from it. * marks the point of attachment. C20 diacid = O=C(O)CCCCCCCCCCCCCCCCCCC(=O)*; γGlu = O=C(O)[C@H](CCC(=O)[*:2])N[*:1]; AEEA = NCCOCCOCC(=O)O

Data set [1] is described as follows: ThT assay: fibril formation propensity and peptide recovery. The data set is classed as physicochemical. The settings on record: for ThT, pH 4.0 lag-time: 250 μM peptide, 10 mM glycylglycine pH 4.0, 1 μM ThT, 37 °C, 960 rpm, 45 h, lowest of four replicas, average of experiments; for recovery: pH 4.0, residual dissolved peptide after 45 h of shaking, centrifugation and 0.22 μm filtration, HPLC, relative to amount before stress. The method, boiled down:
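Fibrillation lag time is read visually from ThT fluorescence-time curves (444/485 nm, 20-min reads, 45 h, 37 °C, 960 rpm shaking) of 250 μM peptide with 1 μM ThT at pH 4.0 or 7.5. The most conservative of four replicates is used. Peptide recovery is post-stress soluble peptide (HPLC, 215/276 nm) as fraction of initial.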

Data set [2] in a line: HMWP content by size-exclusion chromatography. The data set is classed as physicochemical. The note with it: analogs 10–21 (pH 4.0 series); covalent dimers and polymers prior to fibril formation testing, SEC, % of total absorbance area at 215 nm. The method, boiled down:
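HMWP percentage is the covalent dimer/polymer peak area relative to total absorbance area, with extinction coefficients taken as equal to the main peak. Isocratic size-exclusion elution used 50% (v/v) 2-propanol containing 0.5 M NaCl and phosphate buffer; measured on analogs prior to fibril assays.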
For orientation: SEC sorts molecules by how far they enter the pores of the column.

Turning to `CC[C@H](C)[C@H](NC(=O)[C@H](C)NC(=O)CNC(=O)[C@H](Cc1ccccc1)NC(=O)[C@H](CC(N)=O)NC(=O)[C@@H]1CCCN1C(=O)[C@H](CO)NC(=O)[C@H](CO)NC(=O)[C@H](Cc1c[nH]cn1)NC(=O)[C@H](CCCNC(=N)N)NC(=O)[C@H](CC(C)C)NC(=O)[C@H](Cc1ccccc1)NC(=O)[C@H](CCC(=O)O)NC(=O)[C@H](C)NC(=O)[C@H](CC(C)C)NC(=O)[C@H](CCCNC(=N)N)NC(=O)[C@H](CCC(N)=O)NC(=O)[C@@H](NC(=O)[C@H](C)NC(=O)[C@@H]1CSSC[C@H](NC(=O)[C@@H](N)CCCCNC(=O)CC[C@H](NC(=O)CCCCCCCCCCCCCCCCCCC(=O)O)C(=O)O)C(=O)N[C@@H](CC(N)=O)C(=O)N[C@@H]([C@@H](C)O)C(=O)N[C@@H](C)C(=O)N[C@@H]([C@@H](C)O)C(=O)N1)[C@@H](C)O)C(=O)N1CCC[C@H]1C(=O)N[C@@H](CO)C(=O)N[C@@H](CO)C(=O)N[C@H](C(=O)N[C@@H](CC(N)=O)C(=O)N[C@H](C(=O)NCC(=O)N[C@@H](CO)C(=O)N[C@@H](CCCNC(=N)N)C(=O)N[C@H](C(=O)N[C@@H](Cc1ccc(O)cc1)C(N)=O)[C@@H](C)O)C(C)C)[C@@H](C)O` [Peptide 20] (H-K([γGlu-C20 diacid])CNTATCATQRLAEFLRHSSPNFGAIPSSTNVGSRTY-NH2; disulfide 2-7), in data set [1], the “ThT, pH 4.0 lag-time” value was 7 h and the recovery came out at 91%. The HMWP in data set [2] turned out to be 4.9%.

In the case of `CC[C@H](C)[C@H](NC(=O)[C@H](C)NC(=O)CNC(=O)[C@H](Cc1ccccc1)NC(=O)[C@H](CC(N)=O)NC(=O)[C@@H]1CCCN1C(=O)[C@H](CO)NC(=O)[C@H](CO)NC(=O)[C@H](Cc1c[nH]cn1)NC(=O)[C@H](CCCNC(=N)N)NC(=O)[C@H](CC(C)C)NC(=O)[C@H](Cc1ccccc1)NC(=O)[C@H](CC(=O)O)NC(=O)[C@H](C)NC(=O)[C@H](CC(C)C)NC(=O)[C@H](CCCNC(=N)N)NC(=O)[C@H](CCC(N)=O)NC(=O)[C@@H](NC(=O)[C@H](C)NC(=O)[C@@H]1CSSC[C@H](NC(=O)[C@@H](N)CCCCNC(=O)CC[C@H](NC(=O)CC[C@H](NC(=O)CCCCCCCCCCCCCCCCCCC(=O)O)C(=O)O)C(=O)O)C(=O)N[C@@H](CC(N)=O)C(=O)N[C@@H]([C@@H](C)O)C(=O)N[C@@H](C)C(=O)N[C@@H]([C@@H](C)O)C(=O)N1)[C@@H](C)O)C(=O)N1CCC[C@H]1C(=O)N[C@@H](CO)C(=O)N[C@@H](CO)C(=O)N[C@H](C(=O)N[C@@H](CC(N)=O)C(=O)N[C@H](C(=O)NCC(=O)N[C@@H](CO)C(=O)N[C@@H](CCCNC(=N)N)C(=O)N[C@H](C(=O)N[C@@H](Cc1ccc(O)cc1)C(N)=O)[C@@H](C)O)C(C)C)[C@@H](C)O` [NN1213], the “ThT, pH 4.0 lag-time” value in data set [1] (listed as 21) is listed as 42 h. In data set [1], this compound displayed a recovery of 96%. In data set [2], this compound yielded an HMWP of 0.9%.

On to `CC[C@H](C)[C@H](NC(=O)[C@H](C)NC(=O)CNC(=O)[C@H](Cc1ccccc1)NC(=O)[C@H](CC(N)=O)NC(=O)[C@@H]1CCCN1C(=O)[C@H](CO)NC(=O)[C@H](CO)NC(=O)[C@H](Cc1c[nH]cn1)NC(=O)[C@H](CCCNC(=N)N)NC(=O)[C@H](CC(C)C)NC(=O)[C@H](Cc1ccccc1)NC(=O)[C@H](CC(N)=O)NC(=O)[C@H](C)NC(=O)[C@H](CC(C)C)NC(=O)[C@H](CCCNC(=N)N)NC(=O)[C@H](CCC(N)=O)NC(=O)[C@@H](NC(=O)[C@H](C)NC(=O)[C@@H]1CSSC[C@H](NC(=O)[C@H](CCCCN)NC(=O)COCCOCCNC(=O)CC[C@H](NC(=O)CCCCCCCCCCCCCCCCCCC(=O)O)C(=O)O)C(=O)N[C@@H](CC(N)=O)C(=O)N[C@@H]([C@@H](C)O)C(=O)N[C@@H](C)C(=O)N[C@@H]([C@@H](C)O)C(=O)N1)[C@@H](C)O)C(=O)N1CCC[C@H]1C(=O)N[C@@H](CO)C(=O)N[C@@H](CO)C(=O)N[C@H](C(=O)N[C@@H](CC(N)=O)C(=O)N[C@H](C(=O)NCC(=O)N[C@@H](CO)C(=O)N[C@@H](Cc1c[nH]cn1)C(=O)N[C@H](C(=O)N[C@@H](Cc1ccc(O)cc1)C(N)=O)[C@@H](C)O)C(C)C)[C@@H](C)O` [Peptide 18] ({C20 diacid-γGlu-AEEA}-KCNTATCATQRLANFLRHSSPNFGAIPSSTNVGSHTY-NH2; disulfide 2-7; N-terminus assumed), for which, in data set [1], the “ThT, pH 4.0 lag-time” value came out at 15 h and the recovery is reported as 30%. This compound registered an HMWP in data set [2] of 3.5%.

On to `CC[C@H](C)[C@H](NC(=O)[C@H](C)NC(=O)CNC(=O)[C@H](Cc1ccccc1)NC(=O)[C@H](CC(N)=O)NC(=O)[C@@H]1CCCN1C(=O)[C@H](CO)NC(=O)[C@H](CO)NC(=O)[C@H](Cc1c[nH]cn1)NC(=O)[C@H](CCCNC(=N)N)NC(=O)[C@H](CC(C)C)NC(=O)[C@H](Cc1ccccc1)NC(=O)[C@H](CCC(=O)O)NC(=O)[C@H](C)NC(=O)[C@H](CC(C)C)NC(=O)[C@H](CCCNC(=N)N)NC(=O)[C@H](CCC(N)=O)NC(=O)[C@@H](NC(=O)[C@H](C)NC(=O)[C@@H]1CSSC[C@H](NC(=O)[C@H](CCCCN)NC(=O)CC[C@H](NC(=O)CCCCCCCCCCCCCCCCCCC(=O)O)C(=O)O)C(=O)N[C@@H](CC(N)=O)C(=O)N[C@@H]([C@@H](C)O)C(=O)N[C@@H](C)C(=O)N[C@@H]([C@@H](C)O)C(=O)N1)[C@@H](C)O)C(=O)N1CCC[C@H]1C(=O)N[C@@H](CO)C(=O)N[C@@H](CO)C(=O)N[C@H](C(=O)N[C@@H](CC(N)=O)C(=O)N[C@H](C(=O)NCC(=O)N1CCC[C@H]1C(=O)N[C@@H](CC(N)=O)C(=O)N[C@H](C(=O)N[C@@H](Cc1ccc(O)cc1)C(N)=O)[C@@H](C)O)C(C)C)[C@@H](C)O` [Peptide 12] ({C20 diacid-γGlu}-KCNTATCATQRLAEFLRHSSPNFGAIPSSTNVGPNTY-NH2; disulfide 2-7), for which, in data set [1], the “ThT, pH 4.0 lag-time” value was over 45 h and the recovery worked out at 78%. The same compound showed an HMWP in data set [2] of 3.9%.
